Experimental data published in patent publication US20220281848A1, “PYRAZOLE-SUBSTITUTED PYRROLIDINONES AS HERBICIDES” (FMC Corporation, priority 2019, published 2022).

Test system: plants
Assay: Test D pre-emergence, other plants of Tables D1 and D3
Format: in vivo
Settings: for damage to plant (100=total damage to plant; 0=no damage to plant), ABUTH / damage to plant (100=total damage to plant; 0=no damage to plant), AMARE / damage to plant (100=total damage to plant; 0=no damage to plant), BIDPI / damage to plant (100=total damage to plant; 0=no damage to plant), BRAPL / damage to plant (100=total damage to plant; 0=no damage to plant), CYPES / damage to plant (100=total damage to plant; 0=no damage to plant), DIGSA / damage to plant (100=total damage to plant; 0=no damage to plant), ECHCG / damage to plant (100=total damage to plant; 0=no damage to plant), ELEIN / damage to plant (100=total damage to plant; 0=no damage to plant), EPHHL / damage to plant (100=total damage to plant; 0=no damage to plant), GLXMA / damage to plant (100=total damage to plant; 0=no damage to plant), IPOHE / damage to plant (100=total damage to plant; 0=no damage to plant), ORYSA / damage to plant (100=total damage to plant; 0=no damage to plant), PANMI / damage to plant (100=total damage to plant; 0=no damage to plant), SETFA / damage to plant (100=total damage to plant; 0=no damage to plant), SORVU: preemergent, 20 DAA; for damage to plant, ALOMY / damage to plant, AVEFA / damage to plant, BEAVA / damage to plant, BROTE / damage to plant, BRSNN / damage to plant, CHEAL / damage to plant, GALAP / damage to plant, HORVW / damage to plant, KCHSC / damage to plant, LOLPE / damage to plant, POAAN / damage to plant, POLCO / damage to plant, SINAR / damage to plant, STEME / damage to plant, VERPE: pre-emergence, 100=total damage, 0=no damage
Summary of the method: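 Seeds treated with herbicide safener; sown in soil; glasshouse, 16 h light, 65% humidity. Sprayed day 1 (pre) or ~day 12 (post). Spray in 0.2% v/v adjuvant. Scored 0–100 damage: 20 DAA pre, 15 d post.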

## CN1CC(c2cc(C(F)(F)F)n(C)n2)C(C(=O)Nc2cccc(F)c2C(F)(F)F)C1=O (racemic) [Compound 19]
Rate 15
  damage to plant (100=total damage to plant; 0=no damage to plant), ABUTH: 0
  damage to plant (100=total damage to plant; 0=no damage to plant), AMARE: 0
  damage to plant (100=total damage to plant; 0=no damage to plant), BIDPI: 0
  damage to plant (100=total damage to plant; 0=no damage to plant), BRAPL: 0
  damage to plant (100=total damage to plant; 0=no damage to plant), CYPES: 0
  damage to plant (100=total damage to plant; 0=no damage to plant), DIGSA: 70
  damage to plant (100=total damage to plant; 0=no damage to plant), ECHCG: 0
  damage to plant (100=total damage to plant; 0=no damage to plant), ELEIN: 0
  damage to plant (100=total damage to plant; 0=no damage to plant), EPHHL: 0
  damage to plant (100=total damage to plant; 0=no damage to plant), GLXMA: 0
  damage to plant (100=total damage to plant; 0=no damage to plant), IPOHE: 0
  damage to plant (100=total damage to plant; 0=no damage to plant), ORYSA: 0
  damage to plant (100=total damage to plant; 0=no damage to plant), PANMI: 0
  damage to plant (100=total damage to plant; 0=no damage to plant), SETFA: 0
  damage to plant (100=total damage to plant; 0=no damage to plant), SORVU: 0
Rate 30
  damage to plant (100=total damage to plant; 0=no damage to plant), ABUTH: 0
  damage to plant (100=total damage to plant; 0=no damage to plant), AMARE: 0
  damage to plant (100=total damage to plant; 0=no damage to plant), BIDPI: 0
  damage to plant (100=total damage to plant; 0=no damage to plant), BRAPL: 40
  damage to plant (100=total damage to plant; 0=no damage to plant), CYPES: 0
  damage to plant (100=total damage to plant; 0=no damage to plant), DIGSA: 90
  damage to plant (100=total damage to plant; 0=no damage to plant), ECHCG: 20
  damage to plant (100=total damage to plant; 0=no damage to plant), ELEIN: 0
  damage to plant (100=total damage to plant; 0=no damage to plant), EPHHL: 0
  damage to plant (100=total damage to plant; 0=no damage to plant), GLXMA: 0
  damage to plant (100=total damage to plant; 0=no damage to plant), IPOHE: 0
  damage to plant (100=total damage to plant; 0=no damage to plant), ORYSA: 0
  damage to plant (100=total damage to plant; 0=no damage to plant), PANMI: 0
  damage to plant (100=total damage to plant; 0=no damage to plant), SETFA: 60
  damage to plant (100=total damage to plant; 0=no damage to plant), SORVU: 0
Rate 60
  damage to plant (100=total damage to plant; 0=no damage to plant), ABUTH: 0
  damage to plant (100=total damage to plant; 0=no damage to plant), AMARE: 0
  damage to plant (100=total damage to plant; 0=no damage to plant), BIDPI: 0
  damage to plant (100=total damage to plant; 0=no damage to plant), BRAPL: 70
  damage to plant (100=total damage to plant; 0=no damage to plant), CYPES: 0
  damage to plant (100=total damage to plant; 0=no damage to plant), DIGSA: 90
  damage to plant (100=total damage to plant; 0=no damage to plant), ECHCG: 80
  damage to plant (100=total damage to plant; 0=no damage to plant), ELEIN: 0
  damage to plant (100=total damage to plant; 0=no damage to plant), EPHHL: 0
  damage to plant (100=total damage to plant; 0=no damage to plant), GLXMA: 0
  damage to plant (100=total damage to plant; 0=no damage to plant), IPOHE: 0
  damage to plant (100=total damage to plant; 0=no damage to plant), ORYSA: 0
  damage to plant (100=total damage to plant; 0=no damage to plant), PANMI: 0
  damage to plant (100=total damage to plant; 0=no damage to plant), SETFA: 80
  damage to plant (100=total damage to plant; 0=no damage to plant), SORVU: 0
Rate 130
  damage to plant (100=total damage to plant; 0=no damage to plant), ABUTH: 0
  damage to plant (100=total damage to plant; 0=no damage to plant), AMARE: 0
  damage to plant (100=total damage to plant; 0=no damage to plant), BIDPI: 0
  damage to plant (100=total damage to plant; 0=no damage to plant), BRAPL: 80
  damage to plant (100=total damage to plant; 0=no damage to plant), CYPES: 0
  damage to plant (100=total damage to plant; 0=no damage to plant), DIGSA: 90
  damage to plant (100=total damage to plant; 0=no damage to plant), ECHCG: 90
  damage to plant (100=total damage to plant; 0=no damage to plant), ELEIN: 0
  damage to plant (100=total damage to plant; 0=no damage to plant), EPHHL: 0
  damage to plant (100=total damage to plant; 0=no damage to plant), GLXMA: 0
  damage to plant (100=total damage to plant; 0=no damage to plant), IPOHE: 0
  damage to plant (100=total damage to plant; 0=no damage to plant), ORYSA: 0
  damage to plant (100=total damage to plant; 0=no damage to plant), PANMI: 0
  damage to plant (100=total damage to plant; 0=no damage to plant), SETFA: 90
  damage to plant (100=total damage to plant; 0=no damage to plant), SORVU: 0
Rate 250
  damage to plant (100=total damage to plant; 0=no damage to plant), ABUTH: 0
  damage to plant (100=total damage to plant; 0=no damage to plant), AMARE: 0
  damage to plant (100=total damage to plant; 0=no damage to plant), BIDPI: 0
  damage to plant (100=total damage to plant; 0=no damage to plant), BRAPL: 80
  damage to plant (100=total damage to plant; 0=no damage to plant), CYPES: 0
  damage to plant (100=total damage to plant; 0=no damage to plant), DIGSA: 90
  damage to plant (100=total damage to plant; 0=no damage to plant), ECHCG: 90
  damage to plant (100=total damage to plant; 0=no damage to plant), ELEIN: 0
  damage to plant (100=total damage to plant; 0=no damage to plant), EPHHL: 0
  damage to plant (100=total damage to plant; 0=no damage to plant), GLXMA: 0
  damage to plant (100=total damage to plant; 0=no damage to plant), IPOHE: 0
  damage to plant (100=total damage to plant; 0=no damage to plant), ORYSA: 0
  damage to plant (100=total damage to plant; 0=no damage to plant), PANMI: 0
  damage to plant (100=total damage to plant; 0=no damage to plant), SETFA: 90
  damage to plant (100=total damage to plant; 0=no damage to plant), SORVU: 0
Rate 500
  damage to plant (100=total damage to plant; 0=no damage to plant), ABUTH: 10
  damage to plant (100=total damage to plant; 0=no damage to plant), AMARE: 0
  damage to plant (100=total damage to plant; 0=no damage to plant), BIDPI: 0
  damage to plant (100=total damage to plant; 0=no damage to plant), BRAPL: 90
  damage to plant (100=total damage to plant; 0=no damage to plant), CYPES: 0
  damage to plant (100=total damage to plant; 0=no damage to plant), DIGSA: 100
  damage to plant (100=total damage to plant; 0=no damage to plant), ECHCG: 90
  damage to plant (100=total damage to plant; 0=no damage to plant), ELEIN: 0
  damage to plant (100=total damage to plant; 0=no damage to plant), EPHHL: 0
  damage to plant (100=total damage to plant; 0=no damage to plant), GLXMA: 0
  damage to plant (100=total damage to plant; 0=no damage to plant), IPOHE: 0
  damage to plant (100=total damage to plant; 0=no damage to plant), ORYSA: 0
  damage to plant (100=total damage to plant; 0=no damage to plant), PANMI: 0
  damage to plant (100=total damage to plant; 0=no damage to plant), SETFA: 90
  damage to plant (100=total damage to plant; 0=no damage to plant), SORVU: 0
Rate 15, 20 DAA
  damage to plant, ALOMY: 0
  damage to plant, AVEFA: 0
  damage to plant, BEAVA: 0
  damage to plant, BROTE: 0
  damage to plant, BRSNN: 0
  damage to plant, CHEAL: 0
  damage to plant, GALAP: 0
  damage to plant, HORVW: 0
  damage to plant, KCHSC: 0
  damage to plant, LOLPE: 0
  damage to plant, POAAN: 0
  damage to plant, POLCO: 0
  damage to plant, SINAR: 0
  damage to plant, STEME: 0
  damage to plant, VERPE: 0
Rate 30, 20 DAA
  damage to plant, ALOMY: 0
  damage to plant, AVEFA: 0
  damage to plant, BEAVA: 0
  damage to plant, BROTE: 0
  damage to plant, BRSNN: 0
  damage to plant, CHEAL: 0
  damage to plant, GALAP: 0
  damage to plant, HORVW: 0
  damage to plant, KCHSC: 0
  damage to plant, LOLPE: 0
  damage to plant, POAAN: 0
  damage to plant, POLCO: 0
  damage to plant, SINAR: 0
  damage to plant, STEME: 0
  damage to plant, VERPE: 0
Rate 60, 20 DAA
  damage to plant, ALOMY: 0
  damage to plant, AVEFA: 0
  damage to plant, BEAVA: 0
  damage to plant, BROTE: 0
  damage to plant, BRSNN: 0
  damage to plant, CHEAL: 0
  damage to plant, GALAP: 0
  damage to plant, HORVW: 0
  damage to plant, KCHSC: 0
  damage to plant, LOLPE: 0
  damage to plant, POAAN: 10
  damage to plant, POLCO: 0
  damage to plant, SINAR: 0
  damage to plant, STEME: 0
  damage to plant, VERPE: 0
Rate 130, 20 DAA
  damage to plant, ALOMY: 0
  damage to plant, AVEFA: 0
  damage to plant, BEAVA: 0
  damage to plant, BROTE: 0
  damage to plant, BRSNN: 0
  damage to plant, CHEAL: 0
  damage to plant, GALAP: 0
  damage to plant, HORVW: 0
  damage to plant, KCHSC: 0
  damage to plant, LOLPE: 0
  damage to plant, POAAN: 20
  damage to plant, POLCO: 0
  damage to plant, SINAR: 0
  damage to plant, STEME: 0
  damage to plant, VERPE: 0
Rate 250, 20 DAA
  damage to plant, ALOMY: 20
  damage to plant, AVEFA: 10
  damage to plant, BEAVA: 0
  damage to plant, BROTE: 10
  damage to plant, BRSNN: 0
  damage to plant, CHEAL: 10
  damage to plant, GALAP: 0
  damage to plant, HORVW: 0
  damage to plant, KCHSC: 0
  damage to plant, LOLPE: 30
  damage to plant, POAAN: 80
  damage to plant, POLCO: 0
  damage to plant, SINAR: 0
  damage to plant, STEME: 10
  damage to plant, VERPE: 60
Rate 500, 20 DAA
  damage to plant, ALOMY: 70
  damage to plant, AVEFA: 70
  damage to plant, BEAVA: 0
  damage to plant, BROTE: 30
  damage to plant, BRSNN: 20
  damage to plant, CHEAL: 20
  damage to plant, GALAP: 0
  damage to plant, HORVW: 20
  damage to plant, KCHSC: 0
  damage to plant, LOLPE: 80
  damage to plant, POAAN: 80
  damage to plant, POLCO: 10
  damage to plant, SINAR: 0
  damage to plant, STEME: 60
  damage to plant, VERPE: 70
